Experimental data published in PMC5808360, “Neutral Porphyrin Derivative Exerts Anticancer Activity by Targeting Cellular Topoisomerase I (Top1) and Promotes Apoptotic Cell Death without Stabilizing Top1-DNA Cleavage Complexes” (Journal of Medicinal Chemistry, 2017).

Legend:
[1] = target: T1, EGFP-human Top1 in MCF7 cells (Homo sapiens, UniProt P11387); assay: FRAP of EGFP-Top1 in live MCF7 cells; type: cell-based; conditions: CPT 5 μM 10 min, then compound 20 μM 10 min
T1 construct: expressed in transfected cells; host or cells: MCF7 cells, transient transfection (Lipofectamine 2000)
T1 sequence (P11387 1-765): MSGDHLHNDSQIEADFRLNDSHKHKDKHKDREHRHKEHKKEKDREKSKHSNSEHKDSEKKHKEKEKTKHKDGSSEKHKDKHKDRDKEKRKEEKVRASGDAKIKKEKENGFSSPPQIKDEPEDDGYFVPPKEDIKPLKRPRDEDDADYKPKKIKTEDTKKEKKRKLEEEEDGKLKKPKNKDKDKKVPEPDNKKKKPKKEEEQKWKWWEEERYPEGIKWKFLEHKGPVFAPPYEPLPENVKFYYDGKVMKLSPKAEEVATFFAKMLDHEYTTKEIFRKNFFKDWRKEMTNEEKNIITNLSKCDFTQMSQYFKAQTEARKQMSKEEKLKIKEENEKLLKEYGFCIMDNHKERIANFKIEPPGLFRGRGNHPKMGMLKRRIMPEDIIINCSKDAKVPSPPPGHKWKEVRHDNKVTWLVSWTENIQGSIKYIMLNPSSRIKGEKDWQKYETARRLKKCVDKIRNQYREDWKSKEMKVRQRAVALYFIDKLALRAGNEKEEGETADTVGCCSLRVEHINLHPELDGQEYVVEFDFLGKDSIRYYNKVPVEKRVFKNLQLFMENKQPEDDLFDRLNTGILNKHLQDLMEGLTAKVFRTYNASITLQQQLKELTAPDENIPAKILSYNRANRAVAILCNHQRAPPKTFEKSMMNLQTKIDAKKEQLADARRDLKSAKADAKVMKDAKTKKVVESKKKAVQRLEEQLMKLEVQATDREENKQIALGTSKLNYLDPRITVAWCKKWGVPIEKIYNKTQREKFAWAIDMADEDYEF
Description: To obtain direct evidence for compound 8 mediated inhibition of Top1cc formation in live human carcinoma cells, we used MCF7 cells and transiently expressed EGFP-Top1. Live cells expressing ectopic Top1 were analyzed under laser confocal microscopy equipped with fluorescence recovery after photobleaching (FRAP) technology.[40]−[42]
Photobleaching experiments were performed as described formerly[40]−[42] using Andor Spining disk inverted confocal laser-scanning microscope equipped with a 60×/1.42 NA oil-immersion objective (Olympus) and with a CO2-controlled on-stage heated environmental chamber set to 37 °C. FRAP analyses were carried out with living MCF7 cells ectopically expressing EGFP-human Top1 grown on chamber cover glass (Genetix, India) and drug treated as indicated. For FRAP analysis, a subnuclear spot was bleached for 30 ms by solid-state laser line (488 nm for EGFP) adapted to the fluorescent protein of interest and FRAP curves were generated individually normalized to the prebleach signal as described previously.[42]

Top1cc in MCF7 cells = target: T2, Top1cc in MCF7 cells (Homo sapiens, UniProt P11387); assay: Immuno complex of enzyme (ICE) bioassay; type: cell-based
T2 construct: endogenous in cells; host or cells: MCF7 cells
T2 sequence (P11387 2-765 limits assumed): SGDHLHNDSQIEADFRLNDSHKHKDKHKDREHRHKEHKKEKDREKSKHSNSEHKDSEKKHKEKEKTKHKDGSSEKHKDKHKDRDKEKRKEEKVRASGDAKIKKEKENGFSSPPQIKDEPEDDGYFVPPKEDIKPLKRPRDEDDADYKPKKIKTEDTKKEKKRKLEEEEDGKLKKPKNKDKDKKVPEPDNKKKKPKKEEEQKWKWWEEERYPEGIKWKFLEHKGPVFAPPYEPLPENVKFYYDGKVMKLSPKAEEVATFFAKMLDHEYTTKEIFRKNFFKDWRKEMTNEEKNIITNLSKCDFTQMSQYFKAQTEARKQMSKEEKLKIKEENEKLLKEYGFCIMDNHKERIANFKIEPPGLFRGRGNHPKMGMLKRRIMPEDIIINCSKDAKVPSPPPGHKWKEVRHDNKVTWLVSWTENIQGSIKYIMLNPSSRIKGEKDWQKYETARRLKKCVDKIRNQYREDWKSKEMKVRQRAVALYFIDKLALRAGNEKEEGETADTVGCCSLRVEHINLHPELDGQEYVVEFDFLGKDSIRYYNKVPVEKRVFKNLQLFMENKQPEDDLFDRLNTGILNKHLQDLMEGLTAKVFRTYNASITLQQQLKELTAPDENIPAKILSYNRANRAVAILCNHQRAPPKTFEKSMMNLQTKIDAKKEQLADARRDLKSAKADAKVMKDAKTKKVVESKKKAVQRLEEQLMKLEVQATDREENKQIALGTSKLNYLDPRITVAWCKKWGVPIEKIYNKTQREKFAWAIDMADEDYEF
Description: Because compound 8 stimulates apoptosis (Figure 4C and Figure 5B), we examined accumulation of apoptotic Top1-DNA complexes in compound 8 treated cells (Figure 4D) by ICE bioassays.[15],[16] Top1cc related to apoptosis is due to secondary DNA modifications and is independent from direct Top1-drug interaction.[15]−[17] […] Therefore, proteasome mediated degradation of Top1 triggers compound 8 induced apoptosis without stabilizing apoptotic Top1-DNA covalent complexes. […] Genomic DNA was prepared and was briefly sonicated. Varying concentrations of DNA were spotted onto nitrocellulose membrane (Millipore, USA) using a slot-blot vacuum system (Biorad, USA). Immunoblotting was carried out with antihuman Top1 antibodies as described.[41]

[2] = Cell survival (MTT) assay, HEK293; type: cell-based; conditions: human, HEK293 cells (noncancerous embryonic kidney), read-out: IC50 cytotoxicity
Description: (§1) Compound 8 was investigated for its cytotoxicity in the cancer cell lines from different tissue origin,[6],[41] as well as in the noncancerous human embryonic kidney cell lines (HEK293) and mouse embryonic fibroblasts (MEFs). […] The MCF7 breast cancer cell lines were most susceptible to compound 8.
(§2) Cell survival was assessed by 3-(4,5-dimethylthiazol-2-yl)-2,5-diphenyltetrazolium bromide (MTT) assay as discussed previously.[6] The percent inhibition of viability for each concentration of the compounds was calculated with respect to the control, and IC50 values were estimated.

[3] = Cell survival (MTT) assay, MEFs (TDP1+/+ and TDP1-/-); type: cell-based, mouse; conditions: mouse, read-out: IC50 cytotoxicity
Source text: as §1
(§3) Human cancerous cell lines like MCF7, HeLa, HCT116, NIH:OVCAR-3, and HEK293 were obtained from the Developmental Therapeutics Program as kind gift from Dr. Yves Pommier (NIH/NCI/USA). TDP1^+/+ and TDP1^–/– primary MEF cells were kind gift from Dr. Cornelius F. Boerkoel (University of British Columbia, Canada) and were cultured as described previously.[6],[36],[40],[42] Plasmid DNAs were transfected with Lipofectamine 2000 (Invitrogen) according to the manufacturer’s protocol.
as §2

[4] = system: mouse embryonic fibroblasts (MEFs); assay: as above; type: cell-based
Source text: as §1, §3, §2

Question: With CN(C)c1ccc(-c2c3nc(c(-c4ccc(N(C)C)cc4)c4ccc([nH]4)c(-c4ccc(C(=O)O)cc4)c4nc(c(-c5ccc(C(=O)O)cc5)c5ccc2[nH]5)C=C4)C=C3)cc1 [Compound 8, 5,10-Bis(4-carboxyphenyl)-15,20-bis(4-dimethylaminophenyl)porphyrin] as the compound, how does the “Top1 mobility restored in cells pretreated with CPT (FRAP)” value [1] read?
Answer: The value was 12–15%.

Question: What about the “Top1 in DNA-containing fractions (apoptotic Top1cc)” value (Top1cc in MCF7 cells; 20 μM, 12 h) of the same compound?
Answer: The value was “absence of Top1 in the DNA-containing fractions”.

Question: And the “Effect on CPT-induced cellular Top1-DNA complexes” value (Top1cc in MCF7 cells; CPT 10 μM 6 h before addition of compound 8 20 μM for 6 h)?
Answer: Its value is “abrogates CPT-induced cellular Top1-DNA complexes”.

Question: What about the IC50 [2] of the same compound?
Answer: Its IC50 is over 10 µM.

Question: What about the IC50 ([3]; TDP1+/+ primary mouse embryonic fibroblasts (MEFs), TDP1+/+ MEFs) of the same compound?
Answer: Its IC50 is over 10 µM.

Question: What about the IC50 ([3]; TDP1-/- primary mouse embryonic fibroblasts (MEFs), TDP1-/- MEFs) of the same compound?
Answer: Its IC50 is over 10 µM.

Question: And the IC50 ([3]; mouse embryonic fibroblasts (MEFs), MEFs, noncancerous)?
Answer: Its IC50 is over 10 µM.

Question: What about the “Sensitivity of TDP–/– versus TDP1+/+ MEFs cells” value [4] of the same compound?
Answer: The value was “equally sensitive”.
